Results reported in ChEMBL document CHEMBL1150453, “Novel catalytic activity of immobilized spores under reduced water activity” (1997).

How the values were obtained:
Type in all cases: functional
[1] = system: Aspergillus ochraceus; assay: Compound was tested for transformation of progesterone by Dehydrated immobilized spores of Aspergillus orchraceus TS using the method Freeze-thaw
[2] = system: Aspergillus ochraceus; assay: Compound was tested for transformation of progesterone by immobilized spores of Aspergillus orchraceus TS
[3] = system: Aspergillus ochraceus; assay: Compound was tested for transformation of progesterone by Dehydrated immobilized spores of Aspergillus orchraceus TS using the method Ethylacetate
[4] = system: Aspergillus ochraceus; assay: Compound was tested for transformation of progesterone by Dehydrated immobilized spores of Aspergillus orchraceus TS using the method n-Butylacetate
[5] = system: Aspergillus ochraceus; assay: Compound was tested for transformation of progesterone by Dehydrated immobilized spores of Aspergillus orchraceus TS using the method Amylacetate

Structure (SMILES)	Activity [1]	Activity [2]	Activity [3]	Activity [4]	Activity [5]
CC(=O)C1CCC2C3CCC4=CC(=O)CCC4(C)C3[C@@H](O)CC12C (stereo partly specified)	14 uM (g of spores)-1	27.2 uM (g of spores)-1			
CC(=O)OC1CCC2C3CCC4=CC(=O)CCC4(C)C3CCC12C (stereo unspecified)	5 uM (g of spores)-1				
CC(=O)C1CCC2C3CCC4=CC(=O)C=CC4(C)C3CCC12C (stereo unspecified)	7.6 uM (g of spores)-1		23.6 uM (g of spores)-1	13.8 uM (g of spores)-1	16.1 uM (g of spores)-1
C[C@]12CCC(=O)C=C1CC[C@@H]1[C@@H]2CC[C@]2(C)C(=O)CC[C@@H]12 [ANDROSTENEDIONE]	14.7 uM (g of spores)-1		58.7 uM (g of spores)-1	40.4 uM (g of spores)-1	42.6 uM (g of spores)-1
C[C@]12C=CC(=O)C=C1CC[C@@H]1[C@@H]2CC[C@]2(C)C(=O)CC[C@@H]12 [ANDROSTENEDONE]	14.4 uM (g of spores)-1		22.2 uM (g of spores)-1	15.8 uM (g of spores)-1	16.1 uM (g of spores)-1
CC(=O)[C@@]1(O)CC[C@H]2[C@@H]3CCC4=CC(=O)CC[C@]4(C)[C@H]3CC[C@@]21C [HYDROXYPROGESTERONE]			20.8 uM (g of spores)-1	12.2 uM (g of spores)-1	13.8 uM (g of spores)-1
C[C@]12CCC(=O)C[C@@H]1CC[C@@H]1[C@@H]2CC[C@]2(C)[C@@H](O)CC[C@@H]12 [STANOLONE]	5.8 uM (g of spores)-1		4.2 uM (g of spores)-1	2.7 uM (g of spores)-1	2.9 uM (g of spores)-1
C[C@]12CC[C@H]3[C@@H](CCC4=CC(=O)CC[C@@]43C)[C@@H]1CC[C@@H]2O [TESTOSTERONE]	5.5 uM (g of spores)-1		3.9 uM (g of spores)-1	2.6 uM (g of spores)-1	2.7 uM (g of spores)-1
